Results on three molecules are retold here after patent publication US10947270B2, “Targeted prodrug cytosine deaminase fusion carrier and application thereof” (National Yang-Ming University, priority 2015, dated 2021).

Data set [1] relates to HUVEC, U87MG and MCF-7 cells. Description: MTT cytotoxicity assay of yCD series, statements for all three cells. The data set is classed as cell-based, human. To be noted: 5-FC alone. As to the method:
(§1) The cell viability was determined by MTT assay. The seeded HUVEC cells shown in FIG. 7A, the seeded U87MG cells shown in FIG. 7B and the 96 wells of seeded MCF-7 cells shown in FIG. 7C are respectively added with 500 nM RGD4C-yCD, yCD, RGD4C-yCD/UPRT and yCD/UPRT recombinant protein, after removing the recombinant protein not bound with the cells and washing the cells, add 5-FC with different concentrations and observe the cell killing effect. Cells of the control groups were only incubated with different concentrations of 5-FU or 5-FC without protein treatment.
(§2) In this experiment, the MTT assay is applied to measure cytotoxicity induced by RGD4C-yCD/5-FC and RGD4C-yCD/UPRT/5-FC of the targeted prodrug enzyme fusion protein. In 96-well plate of seeded cells is respectively added with recombinant proteins such as 500 nM RGD4C-yCD, yCD, RGD4C-yCD/UPRT and yCD/UPRT, and co-cultured at 37° C. for 2 hours. The recombinant proteins not bound with cells are discarded. The cells were washed, and then were treated with different concentrations of 5-FC for observing the effect of cytotoxicity. On the other hand, the cells only treated with different concentrations of 5-FC and 5-FU separately as the control group.
Background: Formazan colour is commonly taken as a measure of viable cells.

The test system of data set [2] is U87MG, HUVEC and MCF-7 cells. In words: MTT cytotoxic test of EcCD series, statements for several cells. Conditions: 5-FC alone. The data set is classed as cell-based, human. As to the method: (§3) Relative cell viability was measured by MTT assay. The 50 nM EcCD series fusion protein is applied to U87MG, HUVEC and MCF-7 cells at 37° C. for 2 hours, after washing the unbound protein with PBS.

The test system of data set [3] is HUVEC cells. Description: MTT cytotoxicity assay of yCD series protein combined with 5-FC. To be noted: Homo sapiens, 5-FU alone. The data set is classed as cell-based. As to the method: as §1, §2
In data set [4] the test system is U87MG cells. The data set is described as above. Format: cell-based. Conditions: Homo sapiens, U-87 MG, 5-FU alone. As to the method:
as §1, §2

Data set [5] relates to MCF-7 cells. The description is as above. Format: cell-based, human. As to the method:
as §1, §2

Data set [6] relates to HUVEC and U87MG cells. In words: TUNEL apoptosis assay of yCD series fusion protein combined with 5-FC. Format: cell-based, human. Conditions: 500 nM protein, 100 μM 5-FC or 5-FU, 72 hours. The protocol:
FIGS. 9A-9D show the cell apoptosis assay of the yCD series fusion protein combined with 5-FC in HUVEC and U87MG cells. […] And then TUNEL assay kit was used to detect the cell apoptosis (red signal: DNA fragment detected by TUNEL assay kit; blue signal: Hoechst 33342 cell nuclear stain). Cells of the control groups were only incubated with different concentrations of 5-FU or 5-FC without protein treatment. […] (*P value<0.05; Calibration scale: 20 μm)
Previous literature pointed out that 5-FU can promote apoptosis by inhibiting the synthesis of cellular DNA. This experiment is performed on apoptosis analysis to evaluate whether the enzyme precursor treatment system of RGD4C-yCD/5-FC and RGD4C-yCD/UPRT/5-FC can kill the cells by apoptotic mechanism. HUVEC and U87MG cells are co-cultured with culture medium containing 500 nM RGD4C-yCD and RGD4C-yCD/UPRT protein for 2 hours at 37° C., remove and wash the unbound or endocytic proteins, add 100 μM 5-FC or 5-FU, after acting for 72 hours, the DNA fragment of the apoptosis is stained with fluorescence by TUNEL assay analysis set, and the apoptosis is observed by conjugated fluorescence microscope. […] Furtherly, TUNEL fluorescence signals are quantified by image analysis software MetaMorph. […]

Data set [7] deals with MCF-7 cells. In words: MTT cytotoxic test of EcCD series fusion protein (50 nM) coupled with 5-FC. The data set is classed as cell-based. Conditions: Homo sapiens, MCF7, 5-FU alone, 72 hours. As to the method: as §3
Data set [8] has as its system U87MG cells. The description is as above. Format: cell-based. Conditions: Homo sapiens, U-87 MG, 5-FU alone, 72 hours. As to the method: as §3
Data set [9] has as its system HUVEC cells. Described as above. The data set is classed as cell-based, human. Conditions: 5-FU alone. The protocol:
as §3

The format of data set [10] is physicochemical. As to the method: The radiochemical purity of ^111In-DTPA-yCD and ^111In-DTPA-RGD4C-yCD are greater than 95% after marking and purification. Both are stored in HEPES buffer liquid (4° C.) for 48 hours, and the radiochemical purity is still higher than 85% (see FIG. 26). Both are placed in fetal bovine serum (37° C.) to simulate their stability in vivo. After 48 hours, the radiochemical purity of both is about 80%. It is shown that radioactive metal indium-111 is stably chelated on DTPA.

For data set [11], the system named is HUVEC cells. In words: Competitive cell uptake with cRGDfk. Format: cell-based, human. Conditions: cRGDfk 1000-fold molar excess, 4 hours. The protocol:
(§4) The uptake of ^111In-DTPA-yCD is low in the all three cell lines. […] The uptake amount of ^111In-DTPA-RGD4C-yCD by each cell strain is used as a control group, and analyzed by two sample t-test statistical methods, *P-value<0.05, **P-value<0.01, ***P-value<0.001, ****P-value<0.0001.
(§5) ^111In-DTPA-yCD and ^111In-DTPA-RGD4C-yCD (20 μCi/50 pmol/mL) are separately added to the 24-well plate of the seeded cells (2.5×10^5 cells/well) and cultured for 4 hours, and then the radioactivity of the cells and culture medium are separately measured, calculate the uptake amount of the drug by the cells (shown as % AD/10^6 cells).

The test system of data set [12] is MCF-7 cells. In words: Competitive cell uptake with cRGDfk. The data set is classed as cell-based, human. To be noted: cRGDfk 1000-fold molar excess, 4 hours. The protocol:
as §4, §5

Data set [13] relates to U87MG cells. In words: Competitive cell uptake with cRGDfk. The data set is classed as cell-based, human. To be noted: cRGDfk 1000-fold molar excess, 4 hours. The protocol: as §4, §5
The test system of data set [14] is ES-2-luc cells. In words: Competitive cell uptake with cRGDfk. The data set is classed as cell-based. To be noted: cRGDfk 1000-fold molar excess, 4 hours.
Details of data set [15]: species or system nude mice. To be noted: mouse, in vivo. The protocol: The arrow is marked as a tumor.
In in-vitro cell experiment, the binding ability of ^111In-DTPA-RGD4C-yCD and the integrin αvβ3 receptor on the cell membrane has been verified. In order to know whether the drug can show its target effect in vivo, integrin αvβ3 is seeded subcutaneously in the right side of nude mice. After the high-expression U87MG tumor cells are grown to 100 mm^3, 60-70 μCi (3-3.5 μg) of ^111In-DTPA-yCD and ^111In-DTPA-RGD4C-yCD are injected directly into the tumor, the images are collected by microSPECT/CT after 1, 4, 24, 48 hours. It can be seen from the image (see FIG. 31) that the drug retention in the ^111In-DTPA-RGD4C-yCD group (orange arrow) is better than that in the ^111In-DTPA-yCD, and the target ligand RGD4C is missing. ^111In-DTPA-yCD enters the systemic blood circulation system within 1 hour and is metabolized by normal organs. From FIG. 31, it can be seen that the kidney is the main metabolic organ of these two drugs. […] After 24-48 hours, the amount of accumulation in the tumor is running out. On the contrary, ^111In-DTPA-RGD4C-yCD is bound with integrin αvβ3 on tumor cells, then the ratio of drug entering the systemic blood circulation is reduced, and the metabolic rate is slow.

Details of data set [16]: species or system nude mice. To be noted: mouse, in vivo. The protocol: ES-2-luc tumor nude mice is intraperitoneally injected with 50 μCi (2.5 μg) ^111In-DTPA-yCD and ^111In-DTPA-RGD4C-yCD for 1, 4 and 24 hours, then organs are collected and their radioactivity is measured to obtain biodistribution, as shown in Table 19 and Table 20. […] In addition to the part accumulated in the tumor, another part of the drug is absorbed back into the blood circulation system by the peritoneal blood vessels. […] The pancreatic radioactivity of the two drugs is observed after 1 hour of injection. The pancreatic radioactivity of ^111In-DTPA-RGD4C-yCD (8.06±0.88% ID/g) is higher than that of ^111In-DTPA-yCD (3.91±0.36% ID/g), it is suspected that tumor cells invade the pancreas.
This is another data set of the same source.

For the molecule `Nc1nc(=O)[nH]cc1F` [5-FC, 5-fluorocytosine], the “cytotoxic ability” value in [1] was “not significant cytotoxic ability”. This molecule came in with a survival rate in [2] of roughly 100%.
Turning to `O=c1[nH]cc(F)c(=O)[nH]1` [5-FU, 5-fluorouracil], the IC50 in data set [3] stood at 1.6 ± 0.2 µM; in data set [4] it was 1.6 ± 0.3 µM; in data set [5] (5-FU alone), 2.2 ± 0.3 µM; in data set [5] (Homo sapiens, MCF7, 5-FU alone) it was 2.1 ± 0.3 µM; in data set [7], 25.6 ± 0.3 µM; in data set [8] it was 6.5 ± 0.2 µM. The IC50 in [9] (72 hours) is 6.2 ± 1.3 µM; in data set [9] (Homo sapiens, 72 h), 6.5 ± 1.3 µM. For the same molecule, the “apoptosis (TUNEL, words)” value in [6] is reported as “a large amount of apoptosis”.

B1: ^111In-DTPA-RGD4C-yCD: indium-111 labeled DTPA-RGD4C-yCD protein (conjugate)
chain: MACDCRGDCFCVTGGMASKWDQKGMDIAYEEAALGYKEGGVPIGGCLINNKDGSVLGRGHNMRFQKGSATLHGEISTLENCGRLEGKVYKDTTLYTTLSPCDMCTGAIIMYGIPRCVVGENVNFKSKGEKYLQTRGHEVVVVDDERCKKIMKQFIDERPQDWFEDIGELEHHHHHH
As for B1, the “radiochemical purity after incubation” value in [10] is reported as “about 80%”. For the same molecule, the “decrease of cell uptake by cRGDfk” value is recorded as “about 65%” in data set [11], roughly 45% in data set [12], roughly 55% in data set [13] and “about 70%” in data set [14]. Moreover, the “accumulation in the tumor” value in data set [15] is on record as “considerable drug accumulation in the tumor”. The “radioactivity in the peritoneal cavity reduced to (fraction of 1 hour value)” value in data set [16] is given as “¼”. The “radioactivity in tumor higher than that of ^111In-DTPA-yCD” value in data set [16] was “approximately 3 times”.

Broadly, the IC50 is the concentration at which inhibition is half-maximal.
